Assay in all cases: Fungicidal effect on infected agar nutrient media, colony diameter
Holding throughout (assay type): cell-based

Experiment [1] relates to Penicillium cyclopium. Particulars: 7th day after treatment, untreated 26.5. Put shortly:
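Agar media (70 mm diameter, 10 mm thick) infected with Penicillium cyclopium were treated with EC formulations at 1, 10, 100 and 1000 ppm active ingredient. Fungal colony diameter was measured on day 7 after treatment.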

Experiment [2] relates to Sclerotinia sclerotinia. As to conditions: 3rd day after treatment, untreated control 41.7. On the procedure:
Agar nutrient media (Diameter 70 MM, thickness 10 mm) infected by Sclerotonia sclerotinia suspension are treated with 20 EC formulations prepared according to Example 27 and comprising 1, 10, 100 and 1000 ppm, respectively of the active ingredient of the Formula I. The fungicidal effect of the compositions is evaluated on the 3rd day after treatment by measuring the diameter of the Fungi colonies.

Experiment [3] deals with Alternaria tenuis. As to conditions: 5th day after treatment, untreated control 36.8. Put shortly: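 Agar media (70 mm diameter, 10 mm thick) infected with Alternaria tenuis, treated with EC formulations at 1, 10, 100 and 1000 ppm active ingredient. Fungicidal effect read on day 5 after treatment as fungal colony diameter.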

For `CCOP1(=S)OCCS1` (stereo not drawn) [Compound 55], the “Diameter of colony (mm)” value in experiment [1] (1 ppm) worked out at 21.9 mm; in experiment [1] (10 ppm) it was 18.1 mm; in experiment [1] (100 ppm), 8.0 mm; in experiment [1] (1000 ppm), 0 mm; in experiment [2] (1 ppm), 33.1 mm; in experiment [2] (10 ppm), 28.2 mm. Also, the “Diameter of colony (mm)” value in experiment [2] (100 ppm) is given as 0 mm; in experiment [2] (1000 ppm) it was 0 mm; in experiment [3] (1 ppm) it was 32.4 mm; in experiment [3] (10 ppm), 23.5 mm; in experiment [3] (100 ppm), 5.2 mm; in experiment [3] (1000 ppm) it was 0 mm.
For the compound `S=P1(OCCS)OCCS1` (stereo not drawn) [Compound 56], the “Diameter of colony (mm)” value in experiment [1] (1 ppm) is 24.6 mm; in experiment [1] (10 ppm), 18.1 mm; in experiment [1] (100 ppm), 8.8 mm; in experiment [1] (1000 ppm) it was 0 mm; in experiment [2] (1 ppm) it was 40.2 mm; in experiment [2] (10 ppm) it was 31.5 mm. Further, the “Diameter of colony (mm)” value in experiment [2] (100 ppm) was determined as 1.2 mm; in experiment [2] (1000 ppm), 0 mm; in experiment [3] (1 ppm), 32.8 mm; in experiment [3] (10 ppm), 22.1 mm; in experiment [3] (100 ppm) it was 6.0 mm; in experiment [3] (1000 ppm), 0 mm.
Turning to `CC(C)OP1(=S)OCCS1` (stereo not drawn) [Compound 57], the “Diameter of colony (mm)” value stood at 18.7 mm in experiment [1] (1 ppm); 20.0 mm in experiment [1] (10 ppm); 6.2 mm in experiment [1] (100 ppm); 0 mm in experiment [1] (1000 ppm); 37.8 mm in experiment [2] (1 ppm); 25.9 mm in experiment [2] (10 ppm). Besides, the “Diameter of colony (mm)” value in experiment [2] (100 ppm) is listed as 0 mm; in experiment [2] (1000 ppm), 0 mm; in experiment [3] (1 ppm) it was 31.7 mm; in experiment [3] (10 ppm), 26.0 mm; in experiment [3] (100 ppm) it was 7.1 mm; in experiment [3] (1000 ppm), 0 mm.
Turning to `CCCCOP1(=S)OCCS1` (stereo not drawn) [Compound 58], the “Diameter of colony (mm)” value is 21.9 mm in experiment [1] (1 ppm); 16.1 mm in experiment [1] (10 ppm); 8.4 mm in experiment [1] (100 ppm); 0 mm in experiment [1] (1000 ppm); 36.2 mm in experiment [2] (1 ppm); 29.1 mm in experiment [2] (10 ppm). The “Diameter of colony (mm)” value came out at 1.9 mm in experiment [2] (100 ppm); 0 mm in experiment [2] (1000 ppm); 32.7 mm in experiment [3] (1 ppm); 23.9 mm in experiment [3] (10 ppm); 7.5 mm in experiment [3] (100 ppm); 0 mm in experiment [3] (1000 ppm).
Turning to `CCCCOP1(=S)OCCS1` (stereo not drawn) [Compound 59, 2-(0-n-butyl)-2-thio-1,3,2-oxathiophospholane], the “Diameter of colony (mm)” value came to 25.0 mm in experiment [1] (1 ppm); 18.7 mm in experiment [1] (10 ppm); 7.6 mm in experiment [1] (100 ppm); 0 mm in experiment [1] (1000 ppm); 34.3 mm in experiment [2] (1 ppm); 28.5 mm in experiment [2] (10 ppm). For the same compound, the “Diameter of colony (mm)” value was determined as 4.0 mm in experiment [2] (100 ppm); 0 mm in experiment [2] (1000 ppm); 34.0 mm in experiment [3] (1 ppm); 24.1 mm in experiment [3] (10 ppm); 5.6 mm in experiment [3] (100 ppm); 0 mm in experiment [3] (1000 ppm).
For `CCCCOP1(=S)OC(C)CS1` (stereo not drawn) [Compound 60, 2-(0-n-butyl)-2-thio-5-methyl-1,3,2-oxathiophospholane], the “Diameter of colony (mm)” value in experiment [1] (1 ppm) turned out to be 23.6 mm; in experiment [1] (10 ppm) it was 19.9 mm; in experiment [1] (100 ppm), 8.2 mm; in experiment [1] (1000 ppm), 0 mm; in experiment [2] (1 ppm), 33.7 mm; in experiment [2] (10 ppm), 30.0 mm. Also, the “Diameter of colony (mm)” value in experiment [2] (100 ppm) is 3.8 mm; in experiment [2] (1000 ppm) it was 0 mm; in experiment [3] (1 ppm), 33.3 mm; in experiment [3] (10 ppm), 25.5 mm; in experiment [3] (100 ppm), 6.8 mm; in experiment [3] (1000 ppm), 0 mm.
`CCCCOP1(=S)OCC(C)S1` (stereo not drawn) [Compound 61, 2-(0-n-butyl)-2-thio-4-methyl-1,3,2-oxathiophospholane]: the “Diameter of colony (mm)” value in experiment [1] (1 ppm) was determined as 24.0 mm; in experiment [1] (10 ppm), 19.0 mm; in experiment [1] (100 ppm), 8.3 mm; in experiment [1] (1000 ppm), 0 mm; in experiment [2] (1 ppm) it was 35.6 mm; in experiment [2] (10 ppm) it was 28.9 mm. Moreover, the “Diameter of colony (mm)” value in experiment [2] (100 ppm) was determined as 2.7 mm; in experiment [2] (1000 ppm) it was 0 mm; in experiment [3] (1 ppm) it was 36.2 mm; in experiment [3] (10 ppm), 24.3 mm; in experiment [3] (100 ppm) it was 6.2 mm; in experiment [3] (1000 ppm) it was 0 mm.
As to `CCCC(C)OP1(=S)OCCS1` (stereo not drawn) [Compound 62, 2-(0-1'-methyl-n-butyl)-2-thio-1,3,2-oxathiophospholane], the “Diameter of colony (mm)” value in experiment [1] (1 ppm) is 26.1 mm; in experiment [1] (10 ppm), 20.2 mm; in experiment [1] (100 ppm) it was 7.4 mm; in experiment [1] (1000 ppm), 0 mm; in experiment [2] (1 ppm), 37.0 mm; in experiment [2] (10 ppm), 30.2 mm. Besides, the “Diameter of colony (mm)” value turned out to be 3.9 mm in experiment [2] (100 ppm); 0 mm in experiment [2] (1000 ppm); 34.1 mm in experiment [3] (1 ppm); 25.7 mm in experiment [3] (10 ppm); 6.9 mm in experiment [3] (100 ppm); 0 mm in experiment [3] (1000 ppm).
For `CCCCOP1(=S)OC(C)C(C)S1` (stereo not drawn) [Compound 63, 2-(0-n-butyl)-2-thio-4,5-dimethyl-1,3,2-oxathiophospholane], the “Diameter of colony (mm)” value in experiment [1] (1 ppm) was determined as 24.8 mm; in experiment [1] (10 ppm) it was 18.5 mm; in experiment [1] (100 ppm) it was 8.5 mm; in experiment [1] (1000 ppm), 0 mm; in experiment [2] (1 ppm), 34.2 mm; in experiment [2] (10 ppm), 29.9 mm. Moreover, the “Diameter of colony (mm)” value in experiment [2] (100 ppm) was 3.1 mm; in experiment [2] (1000 ppm) it was 0 mm; in experiment [3] (1 ppm) it was 35.0 mm; in experiment [3] (10 ppm), 24.2 mm; in experiment [3] (100 ppm), 6.7 mm; in experiment [3] (1000 ppm), 0 mm.
Consider `CCCCOP1(=S)OC(C)CS1` (stereo not drawn) [Compound 64], for which the “Diameter of colony (mm)” value is recorded as 26.0 mm in experiment [1] (1 ppm); 20.0 mm in experiment [1] (10 ppm); 8.7 mm in experiment [1] (100 ppm); 0 mm in experiment [1] (1000 ppm); 36.9 mm in experiment [2] (1 ppm); 28.7 mm in experiment [2] (10 ppm). The “Diameter of colony (mm)” value in experiment [2] (100 ppm) came to 3.0 mm; in experiment [2] (1000 ppm), 0 mm; in experiment [3] (1 ppm) it was 34.6 mm; in experiment [3] (10 ppm), 26.1 mm; in experiment [3] (100 ppm) it was 4.5 mm; in experiment [3] (1000 ppm), 0 mm.
